This is an account of results in US20040171086A1, “Selective modulation of TLR-mediated biological activity” (3M Innovative Properties Company, priority 2003, published 2004).

One test has as its target T1, TLR7 (Homo sapiens, UniProt Q9NYK1).
T1 sequence (Q9NYK1 27-1049): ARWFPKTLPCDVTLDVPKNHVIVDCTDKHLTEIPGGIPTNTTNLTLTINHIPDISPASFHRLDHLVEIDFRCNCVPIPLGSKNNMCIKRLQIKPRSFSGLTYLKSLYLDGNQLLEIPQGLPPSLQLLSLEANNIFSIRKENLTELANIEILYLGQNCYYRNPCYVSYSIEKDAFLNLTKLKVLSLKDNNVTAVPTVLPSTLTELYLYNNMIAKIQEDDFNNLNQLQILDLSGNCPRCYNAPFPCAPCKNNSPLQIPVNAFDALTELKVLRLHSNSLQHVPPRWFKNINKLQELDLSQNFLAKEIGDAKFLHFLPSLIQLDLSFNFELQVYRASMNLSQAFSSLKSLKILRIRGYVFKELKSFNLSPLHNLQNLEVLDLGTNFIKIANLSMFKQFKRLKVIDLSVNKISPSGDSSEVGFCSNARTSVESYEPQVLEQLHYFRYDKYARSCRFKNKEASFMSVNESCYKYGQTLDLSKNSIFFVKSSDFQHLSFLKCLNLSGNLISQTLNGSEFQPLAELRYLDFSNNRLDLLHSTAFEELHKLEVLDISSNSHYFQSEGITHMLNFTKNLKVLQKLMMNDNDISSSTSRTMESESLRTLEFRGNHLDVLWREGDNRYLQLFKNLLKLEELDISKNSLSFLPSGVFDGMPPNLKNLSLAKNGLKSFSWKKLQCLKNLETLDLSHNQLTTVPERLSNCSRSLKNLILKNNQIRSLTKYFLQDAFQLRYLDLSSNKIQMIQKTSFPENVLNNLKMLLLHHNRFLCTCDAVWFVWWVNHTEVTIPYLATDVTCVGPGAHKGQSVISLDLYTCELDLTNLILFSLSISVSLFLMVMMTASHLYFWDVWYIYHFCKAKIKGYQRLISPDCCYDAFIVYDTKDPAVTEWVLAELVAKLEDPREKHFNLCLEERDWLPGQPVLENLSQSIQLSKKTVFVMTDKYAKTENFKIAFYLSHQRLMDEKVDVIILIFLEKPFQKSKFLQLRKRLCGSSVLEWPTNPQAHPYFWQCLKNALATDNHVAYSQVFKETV
As to the kind of experiment: IFN-α1-luciferase reporter assay in genetically modified Namalwa cells, TLR7. The class given is cell-based. On the set-up: expressed in transfected cells; host or cells: Namalwa (ATCC CRL-1432). The following applies: 10 μM IRM, 18 hours. As to the method: (§1) Results are shown in Table 6 and are expressed as fold induction of IFN-α1 —induced luciferase signal, again with respect to a vehicle control.
(§2) The assay identified TLR6-selective compounds (i.e., compounds that modulate TLR6-mediated activity, but not TLR7-mediated activity), TLR7-selective compounds (compounds that modulate TLR7-mediated activity, but not TLR6-mediated activity), and compounds that modulate cellular activity through both TLR6 and TLR7.
(§3) Unless otherwise indicated, all incubations were performed at 37° C. with 5% CO2 at 98% humidity.
(§4) Culture medium was prepared from complete RPMI 1640 medium (BioSource International, Inc., Camarillo, Calif.). Fetal bovine serum (Atlas Biologicals, Inc., Ft. Collins, Colo.) was added to a final concentration of 7.5% (vol/vol); L-glutamine (BioSource International, Inc.) was added to 5 mM; and sodium pyruvate (BioSource International, Inc.) was added to 1 mM.
Namalwa cells were grown by incubation in culture medium overnight. Cells were harvested by centrifugation in a tabletop centrifuge (1200 RPM for 5 minutes), and then resuspended in phosphate buffered sucrose to a concentration of 1.3×10^7 cells/mL. […]
(§5) The electroporated cells were suspended in 10 mLs of culture medium and incubated overnight. Dead cells and debris were removed after 24 hours using a MACS Dead Cell Removal kit (Miltenyi Biotec, Auburn, Calif.). Cells were resuspended in 10 mL of culture medium and incubated for an additional 24 hours.
(§6) Transfected cells were selected by adding G418 (Promega Corp., Madison, Wis.) to a final concentration of 1 mg/mL and incubating the cells for seven days.
(§7) The selected transfected cells were counted and resuspended to a concentration of 1×10^6 cell per mL in culture medium. 100 μl aliquots of cells were placed in the wells of a white-walled, white-bottomed 96-well plate (Corning, Inc., Corning, N.Y.). 1.0 μL of an IRM compound from Table 1 (prepared at 1 mM in 100% DMSO) was added to some cell aliquots so that the final concentration of IRM compound was 10 μM. As a positive control, some cell aliquots were incubated with Sendai virus instead of IRM compound. As a negative control, some cell aliquots were incubated with DMSO without IRM compound. In all cases, the cells were incubated for 18 hours.
(§8) The plates were equilibrated to room temperature before one volume of reconstituted LucLight Plus (Packard Instruments, Meriden, Conn.) was added to each aliquot of cells. Each well of the plate was read on an LJL Analyst (LJL Biosystems, Inc., Sunnyvale, Calif.) set with a 5 minute dark adapt. Results are shown in Table 6 and are expressed as fold increase of the IFN-αl—induced luciferase signal compared to a DMSO control.
Background: Reporter assays use an easily measured gene product as a stand-in for the process of interest.

Another test concerns the target T2, TLR6 (Homo sapiens, UniProt Q9Y2C9).
T2 construct: expressed in transfected cells; host or cells: Namalwa (ATCC CRL-1432), pCI-TLR6 vector, G418 selected
T2 sequence (Q9Y2C9 32-796): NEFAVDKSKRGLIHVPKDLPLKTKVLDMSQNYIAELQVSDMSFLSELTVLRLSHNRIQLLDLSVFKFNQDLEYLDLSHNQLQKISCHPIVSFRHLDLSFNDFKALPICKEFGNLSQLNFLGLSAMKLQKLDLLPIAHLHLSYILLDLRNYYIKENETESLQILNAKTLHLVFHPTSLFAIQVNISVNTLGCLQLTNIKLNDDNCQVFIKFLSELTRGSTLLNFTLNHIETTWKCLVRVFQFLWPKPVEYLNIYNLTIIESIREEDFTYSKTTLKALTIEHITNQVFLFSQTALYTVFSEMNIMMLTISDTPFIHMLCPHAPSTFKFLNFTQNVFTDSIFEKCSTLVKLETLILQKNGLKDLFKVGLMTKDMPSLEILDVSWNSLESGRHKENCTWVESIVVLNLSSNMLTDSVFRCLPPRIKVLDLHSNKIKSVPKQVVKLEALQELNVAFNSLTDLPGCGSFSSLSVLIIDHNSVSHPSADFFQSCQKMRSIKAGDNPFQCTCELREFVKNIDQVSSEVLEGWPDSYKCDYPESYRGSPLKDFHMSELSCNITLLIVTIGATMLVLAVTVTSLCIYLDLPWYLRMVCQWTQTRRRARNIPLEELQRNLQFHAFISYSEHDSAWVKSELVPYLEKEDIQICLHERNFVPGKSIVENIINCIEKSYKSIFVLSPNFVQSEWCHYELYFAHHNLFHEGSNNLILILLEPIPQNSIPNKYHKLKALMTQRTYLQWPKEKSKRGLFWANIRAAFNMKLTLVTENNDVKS
Kind of test: IFN-α1-luciferase reporter assay in genetically modified Namalwa cells, TLR6. The conditions noted are these: 10 μM IRM, 18 hours. The class given is cell-based. The protocol: as §1, §2, §3, §4
Namalwa cells were grown by incubation in culture medium overnight. Cells were harvested by centrifugation in a tabletop centrifuge (1200 RPM for 5 minutes), and then resuspended in phosphate buffered sucrose to a concentration of 1.3×10^7 cells/mL.
For each transfection, a 750 μL aliquot of the cell suspension was placed in an electroporation cuvette with 4 mm gaps. 10 μg of the pIFN-α1-luc vector and 10 μg of the pCI-TLR6 vector were added to the electroporation cuvette. The cell and vector mixtures were incubated at room temperature for 5 minutes. The cells were electroporated using a BioRad Gene Pulser (BioRad Laboratories, Hercules, Calif.) set to at 500 μF capacitance and […], then incubated at room temperature for 5 minutes.
as §5, §6, §7, §8

As to `Cc1nc2c(N)nc3ccccc3c2n1CC(C)(C)O` [IRM34, 4-amino-α,α,2-trimethyl-1H-imidazo[4,5-c]quinoline-1-ethanol], the “TLR7: fold increase of the IFN-α1-induced luciferase signal compared to a DMSO control” value (“TLR7: fold increase” for short) at TLR7 is on record as 3.37 fold increase. In addition, the “TLR6: fold increase of the IFN-α1-induced luciferase signal compared to a DMSO control” value (from here on “TLR6: fold increase”) at TLR6 was found to be 10.80 fold increase.
Taken in the same sequence, the figures for `Nc1nc2ccccc2c2c1ncn2CCOCCCc1cccnc1` [IRM35, 1-{2-[3-(3-pyridyl)propoxy]ethyl}-1H-imidazo[4,5-c]quinolin-4-amine] were 2.33 fold increase and 6.72 fold increase.
Taken in the same sequence, the figures for `CCCCc1nc2c(N)nc3cccnc3c2n1CCNC(=O)c1ccc(Br)s1` [IRM42, N^2-[2-(4-amino-2-butyl-1H-imidazo[4,5-c][1,5]naphthyridin-1-yl)ethyl]-5-bromo-2-thiophenecarboxamide] were 3.54 fold increase and 0.98 fold increase.
Taken in the same sequence, the figures for `Nc1nc2ccccc2c2c1ncn2CCCCCCCCNC(=O)c1ccccc1` [IRM43, N-[8-(4-amino-1H-imidazo[4,5-c]quinolin-1-yl)octyl]benzamide] were 2.17 fold increase and 1.07 fold increase.
With `CCCCc1nc2c(N)nc3ccc(OCC(=O)N4CCOCC4)cc3c2n1C` [IRM44, 2-[(4-amino-2-butyl-1-methyl-1H-imidazo[4,5-c]quinolin-8-yl)oxy]-1-morpholin-1-ylethanone], at TLR7, the “TLR7: fold increase” value is listed as 1.60 fold increase. At TLR6, the “TLR6: fold increase” value is recorded as 6.10 fold increase.
Taken in the same sequence, the figures for `CCC(COCCCc1ccccc1)n1cnc2c(N)nc3ccccc3c21` (stereo not drawn) [IRM45, 1-{1-[(3-phenylpropoxy)methyl]propyl}-1H-imidazo[4,5-c]quinolin-4-amine] were 1.87 fold increase and 5.56 fold increase.
Take `Nc1nc2ccccc2c2c1ncn2CCCC(=O)c1ccccc1` [IRM46, 4-(4-amino-1H-imidazo[4,5-c]quinolin-1-yl)-1-phenylbutan-1-one]: the “TLR7: fold increase” value on TLR7 was 1.83 fold increase. In addition, the “TLR6: fold increase” value on TLR6 was found to be 3.75 fold increase.
As for `Cc1nc2c(N)nc3ccccc3c2n1CCOCC#Cc1ccccc1` [IRM47, 2-methyl-1-{2-[(3-phenylprop-2-ynyl)oxy]ethyl}-1H-imidazo[4,5-c]quinolin-4-amine], on TLR7, the “TLR7: fold increase” value was 1.91 fold increase. Further, on TLR6, the “TLR6: fold increase” value stood at 9.42 fold increase.
Taken in the same sequence, the figures for `CCc1nc2c(N)nc3ccc(OCc4ccccc4)cc3c2n1CCCCNC(=O)c1ccccc1` [IRM48, N-{4-[4-amino-8-(benzyloxy)-2-ethyl-1H-imidazo[4,5-c]quinolin-1-yl]butyl}benzamide] were 1.62 fold increase and 4.56 fold increase.
Taken in the same sequence, the figures for `COCCc1nc2c(N)nc3ccccc3c2n1CCOCCNC(=O)N1CCOCC1` [IRM49, N-(2-{2-[4-amino-2-(2-methoxyethyl)-1H-imidazo[4,5-c]quinolin-1-yl]ethoxy}ethyl)morpholine-4-carboxamide] were 1.95 fold increase and 10.92 fold increase.
Regarding `CCc1nc2c(N)nc3ccccc3c2n1CCCCSC(C)C` [IRM50], the “TLR7: fold increase” value on TLR7 is reported as 1.91 fold increase. In addition, the “TLR6: fold increase” value at TLR6 came out at 8.80 fold increase.
Consider `COCCc1nc2c(N)nc3ccccc3c2n1CCOCCNC(=O)c1ccc(C(=O)NCCOCCn2c(CCOC)nc3c(N)nc4ccccc4c32)cc1` [IRM51, N,N′-bis(2-{2-[4-amino-2-(2-methoxyethyl)-1H-imidazo[4,5-c]quinolin-1-yl]ethoxy}ethyl)terephthalamide], for which the “TLR7: fold increase” value on TLR7 was found to be 1.74 fold increase. Moreover, on TLR6, the “TLR6: fold increase” value was 3.67 fold increase.
